Active and inactive are the calls of the source.
Key:
Protein skinhead-1 = target: T1, Protein skinhead-1 (Caenorhabditis elegans, UniProt P34707); format: functional
T1 sequence (P34707 whole entry): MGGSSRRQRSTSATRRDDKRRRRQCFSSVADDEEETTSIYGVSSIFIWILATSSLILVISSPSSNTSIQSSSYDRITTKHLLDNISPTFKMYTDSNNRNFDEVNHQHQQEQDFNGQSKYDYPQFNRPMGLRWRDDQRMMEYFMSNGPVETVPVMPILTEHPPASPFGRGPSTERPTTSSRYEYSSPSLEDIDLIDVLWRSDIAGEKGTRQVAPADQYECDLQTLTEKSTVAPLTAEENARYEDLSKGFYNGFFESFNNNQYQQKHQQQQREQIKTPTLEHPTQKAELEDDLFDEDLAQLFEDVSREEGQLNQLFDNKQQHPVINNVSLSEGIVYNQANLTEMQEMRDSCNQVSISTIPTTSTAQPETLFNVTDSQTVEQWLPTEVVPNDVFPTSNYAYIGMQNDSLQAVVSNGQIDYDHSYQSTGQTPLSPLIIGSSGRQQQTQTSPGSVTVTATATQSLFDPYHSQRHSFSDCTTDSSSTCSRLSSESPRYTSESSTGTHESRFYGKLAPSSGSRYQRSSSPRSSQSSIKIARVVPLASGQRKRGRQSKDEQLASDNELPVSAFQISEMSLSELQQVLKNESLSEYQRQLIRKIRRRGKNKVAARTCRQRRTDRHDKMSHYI

[1] = target: T2, Oxysterols receptor LXR-beta (Homo sapiens, UniProt P55055); format: functional, cell-based;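 note: agonist activity at LXR measured by a cell-based luminescence readout across a dose range, run as a counterscreen for daf-12 agonists; HEK293 cells with Gal4-LXR fusion and GAL4-driven luciferase reporter; potency for activation of Gal4-LXR reporter so compounds are agonists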
T2 sequence (P55055 whole entry): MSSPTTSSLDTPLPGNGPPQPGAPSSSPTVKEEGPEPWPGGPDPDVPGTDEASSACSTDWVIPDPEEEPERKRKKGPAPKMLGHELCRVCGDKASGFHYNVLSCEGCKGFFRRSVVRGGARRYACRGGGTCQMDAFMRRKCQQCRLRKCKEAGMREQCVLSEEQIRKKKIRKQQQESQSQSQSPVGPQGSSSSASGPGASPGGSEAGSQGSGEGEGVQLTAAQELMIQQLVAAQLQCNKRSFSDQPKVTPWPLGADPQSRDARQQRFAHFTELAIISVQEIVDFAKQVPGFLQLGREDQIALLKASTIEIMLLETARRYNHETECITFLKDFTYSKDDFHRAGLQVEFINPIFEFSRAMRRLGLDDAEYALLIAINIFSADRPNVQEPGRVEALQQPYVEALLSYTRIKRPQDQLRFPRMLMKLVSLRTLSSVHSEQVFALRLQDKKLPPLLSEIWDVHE

[2] = NIH-3T3 fibroblast cytotoxicity, dose response, cytotoxicity control, cell-based, fluorescence, Alamar Blue, secondary assay (AID 2327); format: functional;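 note: NIH-3T3 mouse fibroblasts cultured with fluconazole at 8 µg/mL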
[3] = C. albicans growth with fluconazole, confirmation, fluorescence, retest (AID 2467); format: functional, cell-based
[4] = growth suppression of PTEN-null colon cells, dose response, cell-based, HCT116 PTEN knockout (AID 1047); format: functional;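 note: HCT116 colon tumor cells with PTEN knocked out; cells exposed to compound for 60 hours before readout; potency for loss of cell viability measured by luminescence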
[5] = growth suppression of beta-catenin-knockout colon cells, dose response, cell-based, HCT116, human colon tumor (AID 1045); format: functional;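 note: HCT116 colon tumor cells with beta catenin knocked out; cells exposed to compound for 60 hours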
[6] = P. falciparum Dd2 growth inhibitors, dose response, SYBR Green, dry powder samples, set 9 (AID 1159568); format: functional, cell-based
[7] = HepG2 cell cytotoxicity, dose response, cytotoxicity control, ATP luminescence, cherry-pick, activator set 2 (AID 1053143); format: functional, cell-based
[8] = target: Mitogen-activated protein kinase 10 (Homo sapiens, UniProt P53779); test: Dose response biochemical screening assay for inhibitors of c-Jun N-Terminal Kinase 3 (JNK3). [Related pubchem assays: 746 ]
Mitogen-activated protein kinase 10, sequence (P53779 whole entry): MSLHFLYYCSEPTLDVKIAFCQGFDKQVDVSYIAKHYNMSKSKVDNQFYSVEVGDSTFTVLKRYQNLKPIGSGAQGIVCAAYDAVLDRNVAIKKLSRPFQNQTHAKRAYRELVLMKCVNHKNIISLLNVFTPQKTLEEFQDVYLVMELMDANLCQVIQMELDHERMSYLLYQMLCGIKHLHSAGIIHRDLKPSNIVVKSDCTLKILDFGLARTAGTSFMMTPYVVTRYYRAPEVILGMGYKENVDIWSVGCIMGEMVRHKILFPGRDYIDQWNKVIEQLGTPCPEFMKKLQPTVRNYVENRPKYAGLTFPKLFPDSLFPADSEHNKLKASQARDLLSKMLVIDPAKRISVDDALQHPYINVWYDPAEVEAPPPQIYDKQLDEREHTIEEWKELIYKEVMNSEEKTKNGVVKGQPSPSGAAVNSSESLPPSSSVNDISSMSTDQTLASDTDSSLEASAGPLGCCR

[9] = P. falciparum 3D7-ScDHODH growth inhibitors, dose response, SYBR Green, dry powder samples (AID 1159570); format: functional, cell-based;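 note: parasite growth measured after 72 hours of compound exposure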
[10] = P. falciparum Dd2 growth inhibitors, dose response, SYBR Green, cherry-picked samples (AID 1159567); format: functional, cell-based
[11] = P. falciparum Dd2 growth inhibitors, dose response, SYBR Green, dry powder samples (AID 1159566); format: functional, cell-based;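 note: potency for growth inhibition with lower SYBR green DNA signal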
[12] = P. falciparum ATP4 D1247Y mutant growth inhibitors, dose response, NITD609-resistant line, SYBR Green, dry powder (AID 1159571); format: functional, cell-based;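 note: parasites synchronized at ring stage by sorbitol before testing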
[13] = THP-1 cell cytotoxicity, dose response, cytotoxicity control for Vif-APOBEC3G degradation inhibitor project, THP-1 cells (AID 1117359); format: functional; conditions: Human immunodeficiency virus 1, THP-1
Large T antigen = Large T antigen (Simian virus 40, UniProt P03070); format: functional, Betapolyomavirus macacae;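 note: Confirmatory-stage PubChem screen for compounds that inhibit SV40 T antigen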
Large T antigen, sequence (P03070 whole entry): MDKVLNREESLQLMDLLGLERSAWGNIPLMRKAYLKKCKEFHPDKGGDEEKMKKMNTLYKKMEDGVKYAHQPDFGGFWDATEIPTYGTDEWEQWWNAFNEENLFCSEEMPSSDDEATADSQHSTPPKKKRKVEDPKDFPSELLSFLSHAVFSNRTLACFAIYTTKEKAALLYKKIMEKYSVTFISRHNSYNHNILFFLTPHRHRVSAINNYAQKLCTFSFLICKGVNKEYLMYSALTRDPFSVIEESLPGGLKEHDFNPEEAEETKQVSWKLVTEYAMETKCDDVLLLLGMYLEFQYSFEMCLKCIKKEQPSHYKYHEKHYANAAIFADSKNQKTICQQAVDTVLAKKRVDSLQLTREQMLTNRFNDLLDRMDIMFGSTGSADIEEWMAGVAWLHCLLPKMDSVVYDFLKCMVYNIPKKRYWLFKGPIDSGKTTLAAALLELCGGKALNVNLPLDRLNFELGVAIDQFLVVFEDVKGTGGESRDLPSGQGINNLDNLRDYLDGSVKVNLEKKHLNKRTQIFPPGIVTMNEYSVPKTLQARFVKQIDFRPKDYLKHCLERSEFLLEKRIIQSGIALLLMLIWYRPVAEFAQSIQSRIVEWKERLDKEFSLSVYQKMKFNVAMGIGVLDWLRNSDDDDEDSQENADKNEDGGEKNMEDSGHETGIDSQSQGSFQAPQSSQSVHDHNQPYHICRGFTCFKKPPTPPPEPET

[14] = target: Luciferin 4-monooxygenase (Photinus pyralis, UniProt P08659); test: firefly luciferase enzyme inhibitors, dose response, biochemical, luminescence (AID 1891)
Luciferin 4-monooxygenase, sequence (P08659 whole entry): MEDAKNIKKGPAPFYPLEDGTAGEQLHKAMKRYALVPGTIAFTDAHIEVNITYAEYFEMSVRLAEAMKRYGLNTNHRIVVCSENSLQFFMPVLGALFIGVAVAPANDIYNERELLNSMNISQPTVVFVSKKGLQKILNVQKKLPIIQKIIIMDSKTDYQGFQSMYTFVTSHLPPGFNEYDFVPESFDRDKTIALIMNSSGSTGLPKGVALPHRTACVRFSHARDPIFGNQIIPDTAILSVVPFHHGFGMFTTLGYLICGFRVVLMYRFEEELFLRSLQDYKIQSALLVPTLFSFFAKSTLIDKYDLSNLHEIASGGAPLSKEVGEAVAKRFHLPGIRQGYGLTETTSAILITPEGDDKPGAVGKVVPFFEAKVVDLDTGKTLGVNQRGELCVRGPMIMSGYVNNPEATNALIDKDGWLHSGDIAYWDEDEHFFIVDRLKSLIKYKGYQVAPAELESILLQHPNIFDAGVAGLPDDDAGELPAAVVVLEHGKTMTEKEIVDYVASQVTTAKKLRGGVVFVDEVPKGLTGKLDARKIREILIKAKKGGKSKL

[15] = Luminescence Cell-Based Dose Confirmation HTS to Identify Inhibitors of Platelet Dense Granule Release. [Related pubchem assays: 1663 (Primary HTS), 1678 (Summary of Project)]; format: functional
[16] = HeLa cell cytotoxicity, dose response, cytotoxicity control for MgcRacGAP inhibitor project (AID 624300); format: functional
[17] = target: T3, Rac GTPase-activating protein 1 (Homo sapiens, UniProt Q9H0H5); test: MgcRacGAP GTPase-activating activity inhibitors, confirmation, biochemical, ADP Hunter fluorescence, primary and confirmatory (AID 624330); format: functional
T3 sequence (Q9H0H5 whole entry): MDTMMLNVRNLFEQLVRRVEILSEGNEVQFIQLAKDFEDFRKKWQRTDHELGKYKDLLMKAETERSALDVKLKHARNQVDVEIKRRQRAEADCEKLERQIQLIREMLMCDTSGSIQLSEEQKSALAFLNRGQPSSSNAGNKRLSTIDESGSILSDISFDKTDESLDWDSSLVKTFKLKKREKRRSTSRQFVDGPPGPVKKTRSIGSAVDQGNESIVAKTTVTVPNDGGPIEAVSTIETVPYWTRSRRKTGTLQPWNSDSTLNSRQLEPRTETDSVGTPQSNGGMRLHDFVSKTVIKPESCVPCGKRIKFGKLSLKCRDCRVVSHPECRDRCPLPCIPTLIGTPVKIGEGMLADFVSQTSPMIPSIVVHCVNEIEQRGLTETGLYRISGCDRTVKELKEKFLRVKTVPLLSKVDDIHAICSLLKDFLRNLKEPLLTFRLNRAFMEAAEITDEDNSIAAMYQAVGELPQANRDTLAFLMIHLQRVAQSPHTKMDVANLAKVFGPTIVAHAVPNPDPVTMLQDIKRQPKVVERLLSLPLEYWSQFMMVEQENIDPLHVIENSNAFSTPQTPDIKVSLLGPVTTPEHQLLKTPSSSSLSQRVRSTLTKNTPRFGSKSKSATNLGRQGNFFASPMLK

[18] = target: Induced myeloid leukemia cell differentiation protein Mcl-1 (Homo sapiens, UniProt Q07820); format: functional
Induced myeloid leukemia cell differentiation protein Mcl-1, sequence (Q07820 whole entry): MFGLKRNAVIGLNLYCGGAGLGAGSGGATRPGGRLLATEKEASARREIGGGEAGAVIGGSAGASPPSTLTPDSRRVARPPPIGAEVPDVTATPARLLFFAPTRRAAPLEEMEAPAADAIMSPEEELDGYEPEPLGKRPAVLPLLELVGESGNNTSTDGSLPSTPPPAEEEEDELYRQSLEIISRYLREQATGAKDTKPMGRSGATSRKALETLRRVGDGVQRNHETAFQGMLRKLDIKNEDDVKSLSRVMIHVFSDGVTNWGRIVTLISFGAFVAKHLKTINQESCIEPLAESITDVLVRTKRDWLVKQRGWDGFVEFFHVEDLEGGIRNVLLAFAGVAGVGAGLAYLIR

[19] = target: T4, Mannose-6-phosphate isomerase (Homo sapiens, UniProt P34949); test: human PMI inhibitors, high substrate, primary screen, biochemical, fluorescence intensity, high mannose 6-phosphate (AID 1220)
T4 sequence (P34949 whole entry): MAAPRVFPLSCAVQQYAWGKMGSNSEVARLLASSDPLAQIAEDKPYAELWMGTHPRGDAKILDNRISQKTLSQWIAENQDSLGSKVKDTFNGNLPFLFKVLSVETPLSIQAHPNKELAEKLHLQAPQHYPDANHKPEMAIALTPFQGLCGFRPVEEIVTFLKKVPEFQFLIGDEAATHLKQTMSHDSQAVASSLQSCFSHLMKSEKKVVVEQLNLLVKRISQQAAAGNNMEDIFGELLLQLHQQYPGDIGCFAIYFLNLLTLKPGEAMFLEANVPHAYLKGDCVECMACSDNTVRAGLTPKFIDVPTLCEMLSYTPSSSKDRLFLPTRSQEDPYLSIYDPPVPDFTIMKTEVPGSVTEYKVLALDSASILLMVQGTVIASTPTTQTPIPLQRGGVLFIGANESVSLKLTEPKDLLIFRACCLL

[20] = target: T5, Corticotropin-releasing factor receptor 2/Corticotropin-releasing factor-binding protein (Homo sapiens, UniProt P24387+Q13324); test: Dose Response confirmation of uHTS hits for small molecule antagonists of the CRF-binding protein and CRF-R2 receptor complex.; format: functional; conditions: read-out: IC50_Mean
T5 sequence (Q13324 whole entry): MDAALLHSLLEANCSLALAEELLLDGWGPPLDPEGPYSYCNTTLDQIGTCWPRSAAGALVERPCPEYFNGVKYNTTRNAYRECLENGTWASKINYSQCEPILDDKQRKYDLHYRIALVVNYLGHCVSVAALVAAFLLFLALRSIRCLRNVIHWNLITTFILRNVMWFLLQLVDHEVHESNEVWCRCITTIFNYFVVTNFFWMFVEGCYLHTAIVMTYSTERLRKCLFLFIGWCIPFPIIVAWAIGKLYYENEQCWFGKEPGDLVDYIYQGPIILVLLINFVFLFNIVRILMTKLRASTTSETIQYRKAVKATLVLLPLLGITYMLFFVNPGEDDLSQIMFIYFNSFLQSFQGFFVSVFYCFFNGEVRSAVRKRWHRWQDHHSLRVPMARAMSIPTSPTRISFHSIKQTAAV
T5 sequence (P24387 whole entry): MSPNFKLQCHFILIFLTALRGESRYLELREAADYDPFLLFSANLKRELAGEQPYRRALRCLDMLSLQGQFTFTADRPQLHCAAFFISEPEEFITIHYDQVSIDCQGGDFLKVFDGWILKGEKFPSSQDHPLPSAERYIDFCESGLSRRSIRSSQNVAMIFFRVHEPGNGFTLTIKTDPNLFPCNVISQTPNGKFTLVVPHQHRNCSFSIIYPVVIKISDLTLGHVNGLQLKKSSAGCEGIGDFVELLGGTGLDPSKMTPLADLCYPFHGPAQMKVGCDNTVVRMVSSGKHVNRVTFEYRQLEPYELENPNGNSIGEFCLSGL

[21] = target: T5, Corticotropin-releasing factor receptor 2/Corticotropin-releasing factor-binding protein; test: activators of CRF receptor 2 with binding protein – uHTS hits, confirmation (AID 602473); format: functional; conditions: read-out: EC50_Mean
Nonstructural protein 1 = Nonstructural protein 1 (Influenza A virus, UniProt Q194T2); format: functional, Influenza A virus (A/California/07/2009(H1N1))
Nonstructural protein 1, sequence (Q194T2 whole entry): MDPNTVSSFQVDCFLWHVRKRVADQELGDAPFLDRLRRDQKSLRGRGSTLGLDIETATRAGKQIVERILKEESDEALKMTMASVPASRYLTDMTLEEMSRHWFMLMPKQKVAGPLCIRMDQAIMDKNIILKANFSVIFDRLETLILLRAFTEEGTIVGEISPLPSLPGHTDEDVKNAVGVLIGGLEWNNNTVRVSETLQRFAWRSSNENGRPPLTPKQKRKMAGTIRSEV

[22] = target: T6, Polyadenylate-binding protein 1 (Homo sapiens, UniProt P11940); test: PABP1 MLLE–PAM2 interaction inhibitors, dose response, miRNA deadenylation inhibitor project, biochemical, fluorescence polarization, Cy5-PAM2 peptide, secondary (AID 602260); format: functional; conditions: read-out: IC50_Mean
T6 sequence (P11940 whole entry): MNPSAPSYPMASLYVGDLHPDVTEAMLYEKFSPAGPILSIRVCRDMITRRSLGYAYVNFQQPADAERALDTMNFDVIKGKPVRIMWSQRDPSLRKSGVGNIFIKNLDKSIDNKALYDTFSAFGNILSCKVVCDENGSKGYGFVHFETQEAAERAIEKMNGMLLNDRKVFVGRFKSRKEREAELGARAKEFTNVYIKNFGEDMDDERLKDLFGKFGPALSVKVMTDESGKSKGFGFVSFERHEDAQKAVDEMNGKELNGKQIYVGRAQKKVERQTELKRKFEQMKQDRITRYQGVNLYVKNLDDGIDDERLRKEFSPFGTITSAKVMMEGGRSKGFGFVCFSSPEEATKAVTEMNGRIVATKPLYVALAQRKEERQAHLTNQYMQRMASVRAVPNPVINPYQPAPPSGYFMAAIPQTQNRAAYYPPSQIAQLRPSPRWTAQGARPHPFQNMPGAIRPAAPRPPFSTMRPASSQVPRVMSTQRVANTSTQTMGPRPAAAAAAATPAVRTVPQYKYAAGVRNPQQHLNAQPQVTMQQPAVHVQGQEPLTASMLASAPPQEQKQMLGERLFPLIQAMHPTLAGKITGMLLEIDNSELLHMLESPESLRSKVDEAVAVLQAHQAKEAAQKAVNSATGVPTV

[23] = target: T6, Polyadenylate-binding protein 1; test: PABP1 MLLE–PAM2 binding inhibitor potency, dose response, biochemical, fluorescence polarization, FITC-PAM2 peptide (AID 602259); format: functional; conditions: read-out: IC50_Mean

O=C(CSc1nc(-c2ccco2)cc(C(F)(F)F)n1)NC1CCCCCCC1
IC50 (Protein skinhead-1): > 100 µM (inactive)

O=C(NC1CCC1)c1ccc(C#CC2CC2)cn1
EC50 [1]: > 67.5 µM (inactive)

Cn1c(NCc2c[nH]c3ccccc23)nc2ccccc21
EC50 [1]: > 67.5 µM (inactive)

S=C(Nc1ccccc1)Nc1nc2ccccc2n1CCOc1ccc(Cl)cc1
EC50 [2]: 11.1 µM (active) | EC50 [3]: 2.58 µM (active) | EC50 [4]: 17.1 µM (active) | EC50 [5]: 16 µM (active) | IC50 (Protein skinhead-1): > 100 µM (inactive)

O=C(Nc1cccc(F)c1)N1CCCCN2[C@H](CO)[C@@H](c3ccc(C#Cc4cccnc4)cc3)[C@@H]2C1
AC50 [6]: 2.58 µM (active)

COc1ccc(Oc2cnn(-c3ccccc3)c(=O)c2Br)cc1
EC50 [1]: > 67.5 µM (inactive)

COc1ccc2c3c([nH]c2c1)[C@H](CO)N(S(C)(=O)=O)CC31CCN(C(=O)Nc2ccccc2)CC1
AC50 [6]: 0.145 µM (active)

c1csc(Cn2nnnc2CN2CCN(c3nc4ccccc4s3)CC2)c1
IC50 (Protein skinhead-1): > 100 µM (inactive)

N#Cc1cccc(-c2ccc3c(c2)[C@H]2[C@H](CCN2S(=O)(=O)c2ccc(F)cc2)[C@@H](CO)N3)c1
AC50 [6]: 8.37 µM (active)

Cc1ccc(Nc2ncnc(-n3cccc3)n2)cc1Cl
AC50 [7]: > 52 µM (inactive)

CNC(=O)c1[nH]cnc1C(=O)Nc1cccc(OC)c1
IC50 [8]: 50.1 µM (not active)

C[C@@H]1CN([C@@H](C)CO)C(=O)c2cccc(NC(=O)C3CC3)c2O[C@@H]1CN(C)C(=O)Nc1ccc(C(F)(F)F)cc1
AC50 [9]: 0.312 µM (active) | AC50 [6]: 0.181 µM (active) | AC50 [10]: 0.642 µM (active) | AC50 [11]: 0.275 µM (active) | AC50 [12]: 0.322 µM (active)

CN=c1ccccc(-c2ccc3cc4c(cc3n2)OCO4)c1O
CC50 [13]: > 40 µM (active)

COc1ccc(C(C)=O)cc1COC(=O)c1cc(C)oc1C
IC50 [8]: 61.8 µM (not active)

Oc1ccc(/C=N/Nc2nccnc2Cl)cc1
IC50 (Large T antigen): 6.32 µM (active) | EC50 [14]: 1.12 µM (active) | EC50 [15]: 0.138 µM (active) | CC50 [16]: 46.1 µM (active) | IC50 [17]: 16.3 µM (active) | AC50 [7]: 13.7 µM (active)

CCc1ccc2c(COC(=O)c3n[nH]c4ccccc34)cc(=O)oc2c1
IC50 [8]: > 93.1 µM (not active)

CCOC(=O)c1c(C)oc2c1c(CN1CCN(C(=O)OCC)CC1)c(O)c1ccccc12
IC50 [18]: 3.95 µM (active) | IC50 [19]: > 50 µM (not active)

CN(C)CCNC(=O)C(=O)c1c(-c2ccccc2)cc2ccccn12
IC50 [20]: > 47.1 µM (inactive) | EC50 [21]: > 53 µM (inactive) | CC50 [13]: > 40 µM (active)

CNc1cccc2c1C(=O)c1ccccc1C2=O
IC50 (Nonstructural protein 1): 8.18 µM (active) | IC50 [22]: > 66 µM (inactive) | IC50 [23]: 49.1 µM (inactive) | IC50 (Protein skinhead-1): > 100 µM (inactive)

Cc1ccc(NC(=S)NC(=O)C2CCCC2)c(Br)c1
EC50 [1]: > 67.5 µM (inactive)

Reference: ChEMBL document CHEMBL1201862, “PubChem BioAssay data set” (2004)
